“Also recorded” adds a separate entry of the source.
Tests used:
Aβ oligomer-treated mice [1] = assay: Morris water maze test (spatial cognition); format: in vivo, ICR mice; conditions: acyclovir 500 mg/kg, DXMT 2 mg/kg, donepezil 2.5 mg/kg; for time in the target area compared with the Aβ group: probe trial, platform removed, 90 sec
Description: (§1) The acyclovir, DXMT and donepezil were dissolved in water.
(§2) Mice recover for 3 d without any experiments.
The spatial memory is assessed with the Morris water maze test^10. The Morris water maze is a circular pool (110 cm in diameter) filled with water at a temperature of 23±2° C., and has a platform. Except on a last day, the platform is always placed in a center of a northwest quadrant. Swimming tracks are recorded by a video recorder connected to a computer. Each mouse is trained on positioning the platform over a four-day trial, and learning is assessed daily for four consecutive days. The time mice take to enter a hidden platform is measured. On the last day, the platform is removed and the mice are trained to swim for 90 sec for a probe trial. The swimming times are recorded in the four quadrants of the pool. A tendency to appear in the quadrant occupied before the platform indicates a spatial memory ability.

interleukin-6 (IL-6) = assay: ELISA of IL-6 in mouse hippocampus; format: in vivo, ICR mice; conditions: acyclovir 500 mg/kg, DXMT 2 mg/kg, donepezil 2.5 mg/kg
Description: as §1, §2
(§3) One day after the Morris water maze test, mice are deeply anesthetized and transcardially perfused with an ice-cold saline. The brain is quickly dissected. Hippocampal proteins are extracted and stored at −80° C. prior to use in a Western blotting assay (4 mice per group) and an enzyme-linked immunosorbent assay (ELISA, 3 mice per group). Intact brain tissues (3 mice per group) are stored in a formalin solution at […] prior to staining using immunohistochemistry (IHC).
Determination was conducted on concentrations of interleukin-6 (IL-6) and tumor necrosis factor-α (TNF-α) in mouse hippocampus using freshly prepared brain tissues. Brain samples are homogenized in a 0.1M phosphate buffered saline. A resulting brain extract is centrifuged to 2,000 g at 4° C. for 15 min. Concentrations of IL-6 and TNF-α are determined with an ELISA kit (Excell Bio, Shanghai, China) according to the manufacturer's protocol. An absorbance is read.

IL-17 = assay: Western blotting of IL-17 in mouse hippocampus; format: in vivo, ICR mice; conditions: acyclovir 500 mg/kg, DXMT 2 mg/kg, donepezil 2.5 mg/kg
Description: as §1, §2, §3
(§4) The Western blotting assay is conducted as previously described^11. Briefly, the brain tissues from hippocampus are extracted in a lysis buffer for 1 min and centrifuged at 16,000 g for 10 min. Protein levels in a supernatant are estimated by a Bradford analysis, the proteins are separated on an SDS-polyacrylamide gel, and electrotransferred to a polyvinylidene fluoride membrane. After 2 h of incubation with 5% skim milk in TBST, incubation is conducted for 12 h with corresponding antibodies Tau, IL-17 (Santa Cruz Biotechnology, Shanghai, China), pSer396-Tau, PSD-95, and β-actin (Cell Signaling Technology, Inc., Beverly, Mass., USA). […] The data is expressed as a ratio of an optical density (OD) compared to the control and a statistical analysis.

[2] = system: glial fibrillary acidic protein (GFAP); assay: IHC staining of GFAP (astrocyte activation) in hippocampus; format: in vivo, ICR mice; conditions: acyclovir 500 mg/kg, DXMT 2 mg/kg, donepezil 2.5 mg/kg
Description: as §1, §2, §3
(§5) IHC staining is conducted according to previously reported protocols^11. Briefly, after the Morris water maze test, the brains are dissected and incubated with 4% paraformaldehyde for 1 d. Brain specimens are dehydrated, paraffin-embedded, and sliced into 4-micron slices. Hippocampal sections are dewaxed and rehydrated. Treatment with 3% H2O2 is conducted for 10 min to inhibit a cellular peroxidase activity. Sections are incubated overnight at 4° C. with primary antibodies to a CD45 antigen and a glial fibrillary acidic protein (GFAP). […] The sections are labeled with DAB and analyzed colorimetrically. A mean OD of the area is analyzed using Image Pro 6.0 (Media Cybernetics Inc., MD, USA). […] Positive area and OD are determined by measurements on randomly selected microscope fields on each slide. […]

CD45 = assay: IHC staining of CD45 (microglia activation) in hippocampus; format: in vivo, ICR mice; conditions: acyclovir 500 mg/kg, DXMT 2 mg/kg
Description: as §1, §2, §3, §5

PSD-95 = assay: Western blotting of PSD-95 in mouse hippocampus; format: in vivo, ICR mice; conditions: acyclovir 500 mg/kg, DXMT 2 mg/kg, donepezil 2.5 mg/kg
Description: as §1, §2, §3, §4

pSer396-Tau = assay: Western blotting of pTau in mouse hippocampus; format: in vivo, ICR mice; conditions: acyclovir 500 mg/kg, DXMT 2 mg/kg
Description: as §1, §2, §3, §4

HSV-1-infected cells = conditions: cited from earlier work
Aβ oligomer-treated mice [3] = assay: Open field experiment (motor activity); conditions: day 17, 5 min, acyclovir 500 mg/kg, DXMT 2 mg/kg
Description: Zhejiang Academy of Medical Sciences has provided ICR mice weighing about 25 g. The mice are subjected to a 12-h illumination/darkness cycle at 22±2° C. (humidity: 50±10%) and are provided with water and standard food. The acyclovir, DXMT and donepezil were dissolved in water. The mice are randomly divided into 6 groups with 10 mice in each group, including: a control group, an Aβ oligomer group, an Aβ+500 mg/kg acyclovir group, an Aβ+2 mg/kg DXMT group, an Aβ+500 mg/kg acyclovir, 2 mg/kg DXMT group, and an Aβ+2.5 mg/kg donepezil group. The mice are anesthetized by intraperitoneal injection of sodium pentobarbital (50 mg/kg) and placed in a stereotaxic apparatus (RWD Life Science Co., Ltd., Shenzhen, China).
On day 1, the Aβ oligomer was injected into a bilateral ventricle region. A micro-dose is injected (1 μl/side) over 5 min. To reduce backflow, the cannula is left in place for 5 min. […] Mice recover for 3 d without any experiments. […]
To analyze a motor activity and exploratory behavior, the mice are housed in an open field (50 cm×50 cm×39 cm) with white plywood walls and brown floors. […] The number of crossed lines of four paws and the number of feedings are recorded using a hand-held counter and stopwatch, which are used to mark the motor activity and exploratory behavior. […]

[4] = Body weight of Aβ oligomer-treated mice during treatment; format: in vivo, ICR mice; conditions: last day of experiment, gavage 13 d twice a day, acyclovir 500 mg/kg, DXMT 2 mg/kg, donepezil 2.5 mg/kg
Description: as §1, §2
Briefly, on day 1, the Aβ oligomers are injected into both sides of the mouse hippocampus. The mice are let recover for 3 d. On days 4 to 16, mice are treated differently for 13 d. On day 17, a motor function of the mice is examined by the open field test. On days 18-24, the spatial cognition is tested by the Morris water maze test. On day 25, the mice are sacrificed for biochemical studies.
Digestive disturbance is one of the common adverse effects of acyclovir. Long-term treatment with acyclovir may cause indigestion and malnutrition, leading to weight loss. Therefore, the body weight of the mice is measured every 2 d to 3 d during the experiment.

Nc1nc2c(ncn2COCCO)c(=O)[nH]1 [acyclovir]
time in the target area compared with the Aβ group (Aβ oligomer-treated mice [1]): do not show a better performance | Aβ-induced increase in IL-6 expression compared with the Aβ group (interleukin-6 (IL-6)): does not significantly reduce IL-6 production | Aβ-induced increase in IL-17 expression compared with the Aβ group (IL-17): cannot reduce the expression of IL-17 | Aβ-induced increase in the mean OD of GFAP compared with the Aβ group [2]: significantly reduce; also recorded: neither acyclovir nor donepezil treatment can change | Aβ-induced increase in CD45 mean OD compared with the Aβ group (CD45): can inhibit the activation of microglia | expression of PSD-95 compared with the Aβ group (PSD-95): does not alter the expression of PSD-95 | Aβ-induced increase in pTau expression compared with the Aβ group (pSer396-Tau): significantly attenuate | inhibition of aberrant tau phosphorylation (HSV-1-infected cells): ~100% | reduction of HSV-1-induced Aβ accumulation (HSV-1-infected cells): 70% | motor function (number of standing, number of crossing lines) (Aβ oligomer-treated mice [3]): do not significantly alter the motor function

COc1cc2c(cc1OC)C(=O)C(CC1CCN(Cc3ccccc3)CC1)C2 (centres unmarked) [donepezil]
body weight compared with the control group [4]: does not change the body weight | time to find the hidden platform (latency) compared with the Aβ group (Aβ oligomer-treated mice [1]; last day of training, gavage 13 d): significantly shorter | time in the target area compared with the Aβ group (Aβ oligomer-treated mice [1]): significantly longer | Aβ-induced increase in IL-6 expression compared with the Aβ group (interleukin-6 (IL-6)): does not alter the expression of IL-6 | Aβ-induced increase in IL-17 expression compared with the Aβ group (IL-17): does not alter the expression of IL-17 | Aβ-induced increase in the mean OD of GFAP compared with the Aβ group [2]: neither acyclovir nor donepezil treatment can change | expression of PSD-95 compared with the Aβ group (PSD-95): does not alter the expression of PSD-95

Reference: patent US20230023770A1, “Preparation of Drug for Treating Alzheimer's Disease (AD)” (Plantarx Limited, priority 2019, published 2023)
